From paper PMC9788418, “Design, Synthesis and Biological Evaluation of Syn and Anti-like Double Warhead Quinolinones Bearing Dihydroxy Naphthalene Moiety as Epidermal Growth Factor Receptor Inhibitors with Potential Apoptotic Antiproliferative Action” (Molecules, 2022)

Legend:
Assay type in all cases: cell-based, human
Bcl-2 = Bcl-2 inhibition assay; conditions: for Bcl-2 Conc: A-549; for Bcl-2 Fold Reduction: A-549, vs control
Protocol: 4.2.5. Bcl-2inhibition assay
Mix all reagents thoroughly without foaming before use. Wash the microwells twice with approximately 300 μL Wash Buffer per well with thorough aspiration of microwell contents between washes. Take caution not to scratch the surface of the microwells. After the last wash, empty the wells and tap microwell strips on absorbent pad or paper towel to remove excess Wash Buffer. Use the microwell strips immediately after washing or place upside down on a wet absorbent paper for not […]
longer than 15 minutes. […] Add 100 μL of Sample Diluent in duplicate to all standard wells and to the blank wells. Prepare standard (1:2 dilution) in duplicate ranging from 32 ng/mL to 0.5 ng/mL. Add 100 μL of Sample Diluent, in duplicate, to the blank wells. Add 80 μL of Sample Diluent, in duplicate, to the sample wells. Add 20 μL of each Sample, in duplicate, to the designated wells. Add 50 μL of diluted biotin-conjugate to all wells, including the blank wells. Cover […]
Remove plate cover and empty the wells. […]
plate cover and incubate at room temperature, on a microplate shaker at 100 rpm if available, for 1 hour. Remove plate cover and empty the wells. Wash microwell strips 3 times as described in step 2.
Proceed to the next step. Pipette 100 μl of mixed TMB Substrate Solution to all wells, including the […]
available on a rotator set at 100 rpm. Avoid direct exposure to intense light. The point, at which the substrate reaction is stopped, is often determined by the ELISA reader. Many ELISA readers record absorbance only up to 2.0 O.D. Therefore, the color development within individual microwells must be watched by the person running the assay and the substrate reaction stopped before positive wells are no longer properly detectable. Stop the enzyme reaction by quickly pipetting 100 μL of Stop Solution into each well, including the blank wells. It is important that the Stop Solution is spread quickly and uniformly throughout the microwells to completely inactivate the enzyme. Results must be read immediately after the Stop Solution is added or within one hour if the microwell strips are stored at 2 - 8°C in the dark. Read absorbance of each microwell on a spectrophotometer using 450 nm as the primary wave length. […]

[1] = test system: four tested cancer cell lines (A-549, MCF-7, Panc-1, HT-29); test: Antiproliferative assay, average over the four cell lines; conditions: for GI50: Homo sapiens, mean of the four cancer cell lines
Protocol: The newly synthesized compounds were tested for antiproliferative activity against four different types of cancer cells: A-549 (epithelial cancer cell line), MCF-7 (breast cancer cell line), Panc-1 (pancreas cancer cell line), and HT-29 (colon cancer cell line).
After 24 h, medium was removed from the plates and the compounds in (in 0.1% DMSO) were added (in 200 μL medium to yield a final concentration of 0.1% v/v) to the wells of plates. A single compound was designated with four wells followed by incubation of plates for 96h at 37°C. After incubation, medium was removed completely from the plates followed by addition of MTT (0.4 mg/mL in medium) to each well and subsequent incubation of plates for 3h. MTT (along with the medium) was removed and DMSO (150μL) was added to each well of the culture plates, followed by vortexing and subsequent measurement of absorbance (at 540 nm) using microplate reader. The data are shown as percentage inhibition of proliferation in comparison with controls containing 0.1% 4.2.1.2. Assay for antiproliferative effect
To explore the antiproliferative potential of compounds MTT assay was performed according to previously reported procedure using different cell lines to explore the antiproliferative potential of compounds propidium iodide fluorescence assay was performed using different cell lines. To calculate the total nuclear DNA, a fluorescent dye (propidium iodide, PI) is used which can attach to the DNA, thus offering a quick and precise technique. PI cannot pass through the cell membrane and its signal intensity can be considered as directly proportional to quantity of cellular DNA. Cells whose cell membranes are damaged or have changed permeability are counted as dead ones. The assay was performed by seeding the cells of different cell lines at a density of 3000-7500 cells/well (in 200µl medium) in culture plates followed by incubation for 24h at 37 °C in humidified 5% CO2/95% air atmospheric conditions. The medium was removed; the compounds were added to the plates at 10 µM concentrations (in 0.1% DMSO) in triplicates, followed by incubation for 48 h. DMSO (0.1%) was used as control. After incubation, medium was removed followed by the addition of PI (25 µl, 50µg/mL in water/medium) to each well of the plates. At -80 °C, the plates were allowed to freeze for 24 h, followed by thawing at 25 °C. A fluorometer (Polar-Star BMG Tech) was used to record the readings at excitation and emission wavelengths of 530 and 620 nm for each well. The percentage cytotoxicity of compounds was calculated using the following formula:
Where ATC= Absorbance of treated cells and AC= Absorbance of control. Erlotinib was used as positive control in the assay.

[2] = test system: Panc-1 (pancreas cancer cell line); test: Antiproliferative assay; conditions: Homo sapiens, PANC-1; read-out: Antiproliferative Activity IC50 ± SEM, Panc-1
Protocol: 4.2. Biological evaluation
4.2.1. Cytotoxic activity using MTT Assay and evaluation of IC50 […]
cells were seeded at a density of 10^4 cells mL-1 in flat-bottomed culture plates containing 96 wells each. After 24 h, medium was removed from the plates and the compounds in (in 0.1% DMSO) were added (in 200 μL medium to yield a final concentration of 0.1% v/v) to the wells of plates. A single […]
incubation, medium was removed completely from the plates followed by addition of MTT (0.4 mg/mL in medium) to each well and subsequent incubation of plates for 3h. MTT (along with the medium) was removed and DMSO (150μL) was added to each well of the culture plates, followed by vortexing and subsequent measurement of absorbance (at 540 nm) using microplate reader. The data […]
4.2.1.2. Assay for antiproliferative effect
To explore the antiproliferative potential of compounds MTT assay was performed according to previously reported procedure using different cell lines to explore the antiproliferative potential of compounds propidium iodide fluorescence assay was performed using different cell lines. To calculate the total nuclear DNA, a fluorescent dye (propidium iodide, PI) is used which can attach to the DNA, thus offering a quick and precise technique. PI cannot pass through the cell membrane and its signal intensity can be considered as directly proportional to quantity of cellular DNA. Cells whose cell membranes are damaged or have changed permeability are counted as dead ones. The assay was performed by seeding the cells of different cell lines at a density of 3000-7500 cells/well (in 200µl […]
atmospheric conditions. The medium was removed; the compounds were added to the plates at 10 µM concentrations (in 0.1% DMSO) in triplicates, followed by incubation for 48 h. DMSO (0.1%) was used as control. After incubation, medium was removed followed by the addition of PI (25 µl, 50µg/mL in water/medium) to each well of the plates. At -80 °C, the plates were allowed to freeze for 24 h, followed by thawing at 25 °C. A fluorometer (Polar-Star BMG Tech) was used to record the readings at excitation and emission wavelengths of 530 and 620 nm for each well. The percentage cytotoxicity of compounds was calculated using the following formula:
Where ATC= Absorbance of treated cells and AC= Absorbance of control. […]
positive control in the assay.

GI50 [1] [nM]	IC50 [2] [nM]	fold more potent than 4c (GI50) ([1]; relative to 4c) [fold]	fold less potent than erlotinib (GI50) ([1]; relative to erlotinib) [fold]	Structure (SMILES)	Bcl-2 Conc (Bcl-2) [ng/mL]	Bcl-2 Fold Reduction (Bcl-2)
34	36 ± 3			O=c1cc(-n2cc(COc3cccc4cccc(OCc5cn(-c6cc(=O)[nH]c7ccccc67)nn5)c34)nn2)c2ccccc2[nH]1 [Compound 4a, 4,4′-(((naphthalene-1,8-diylbis(oxy))bis(methylene))bis(1H-1,2,3-triazole-4,1-diyl))-bis-(quinolin-2(1H)-one)]	1.05	5
45	46 ± 4	1.8	1.4	Cc1ccc2[nH]c(=O)cc(-n3cc(COc4cccc5cccc(OCc6cn(-c7cc(=O)[nH]c8ccc(C)cc78)nn6)c45)nn3)c2c1 [Compound 4b, 4,4′-(((naphthalene-1,8-diylbis(oxy))bis(methylene))bis(1H-1,2,3-triazole-4,1-diyl))-bis(6-methylquinolin-2(1H)-one)]	1.17	4
